The text below walks through data of patent publication US11453677B2 (priority 2016, dated 2022).

Common to all, as to experiment: cells
Common to all, as to type: cell-based

The subject of test [1] is influenza A virus minigenome (PB2, PB1, PA, NP) RNP_Alaska in 293T cells. Particulars: HEK-293T, 48 h, read-out: RNP_Alaska EC50.
For test [2], the system named is influenza A virus minigenome (PB2, PB1, PA, NP) RNP_CAL in 293T cells. The conditions noted are these: HEK-293T, 48 h, read-out: RNP_CAL_EC50.
Test [3] concerns influenza virus minigenome (PB2, PB1, PA, NP) RNP_Hubei in 293T cells. The conditions noted are these: unidentified influenza virus, HEK-293T, 48 h, read-out: RNP_Hubei EC50.

For the compound `O=c1ccn2c(c1O)-c1ncc(-c3cn[nH]c3)n1C[C@@H]2C(c1ccccc1)c1ccccc1` [Example 52, (S)-6-benzhydryl-11-hydroxy-3-(1H-pyrazol-4-yl)-5,6-dihydro-10H-imidazo[1,2-a]pyrido[2,1-c]pyrazin-10-one], the EC50 in test [1] was 5100 nM; in test [2] it was 8300 nM; in test [3] it was 970 nM.

`O=c1ccn2c(c1O)-c1ncc(-c3ccccc3)n1C[C@@H]2C(c1ccccc1)c1ccccc1` [Example 53, (S)-6-benzhydryl-11-hydroxy-3-phenyl-5H-imidazo [1,2-a] pyrido[2,1-c]pyrazin-10(6H)-one]: the EC50 in test [1] is 540 nM; in test [2], 3000 nM; in test [3] it was 190 nM.

On to `CC(O)c1cnc2n1C[C@H](C(c1ccccc1)c1ccccc1)n1ccc(=O)c(O)c1-2` (stereo partly drawn) [Example 55, (6S)-6-benzhydryl-11-hydroxy-3-(1-hydroxyethyl)-5H-imidazo [1,2-a]pyrido[2,1-c]pyrazin-10(6H)-one], for which the values for the EC50 in test [1], in test [2] and in test [3] were 2600 nM, 1700 nM and 6600 nM, respectively.

As to `COCc1cnc2n1C[C@H](C(c1ccccc1)c1ccccc1)n1ccc(=O)c(O)c1-2` [Example 56, (S)-6-benzhydryl-11-hydroxy-3-(methoxymethyl)-5H-imidazo [1,2-a]pyrido[2,1-c]pyrazin-10(6H)-one], the EC50 stood at 280 nM in test [1], 92 nM in test [2] and 270 nM in test [3].

As to `O=c1ccn2c(c1O)-c1ncc(C(F)F)n1C[C@@H]2C(c1ccccc1)c1ccccc1` [Example 57, (S)-6-benzhydryl-3-(difluoromethyl)-11-hydroxy-5H-imidazo[1,2-a]pyrido[2,1-c]pyrazin-10(6H)-one], the figures for the EC50 in test [1], in test [2] and in test [3] were 220 nM, 180 nM and 580 nM, respectively.

For the compound `O=c1ccn2c(c1O)-c1ncc(CN3CCSCC3)n1C[C@@H]2C(c1ccccc1)c1ccccc1` [Example 62, (S)-6-benzhydryl-11-hydroxy-3-(thiomorpholinomethyl)-5,6-dihydro-10H-imidazo[1,2-a]pyrido[2,1-c]pyrazin-10-one], the EC50 in test [1] worked out at 1900 nM; in test [2] it was 640 nM; in test [3] it was 1500 nM.

On to `O=c1ccn2c(c1O)-c1ncc(CNC3CCOCC3)n1C[C@@H]2C(c1ccccc1)c1ccccc1` [Example 65, (S)-6-benzhydryl-11-hydroxy-3-(((tetrahydro-2H-pyran-4-yl)amino)methyl)-5,6-dihydro-10H-imidazo[1,2-a]pyrido[2,1-c]pyrazin-10-one], for which the EC50 was determined as 4800 nM in test [1], 3500 nM in test [2] and 4900 nM in test [3].

Consider `C[C@@H](NCc1cnc2n1C[C@H](C(c1ccccc1)c1ccccc1)n1ccc(=O)c(O)c1-2)C(F)(F)F` [Example 66, (S)-6-benzhydryl-11-hydroxy-3-((((R)-1,1,1-trifluoropropan-2-yl)amino)methyl)-5,6-dihydro-10H-imidazo[1,2-a]pyrido[2,1-c]pyrazin-10-one], for which the EC50 worked out at 720 nM in test [1], 310 nM in test [2] and 630 nM in test [3].

On to `O=C(NC1CC1)c1cnc2n1C[C@H](C(c1ccccc1)c1ccccc1)n1ccc(=O)c(O)c1-2` [Example 70, (S)-6-benzhydryl-N-cyclopropyl-11-hydroxy-10-oxo-5,6-dihydro-10H-imidazo[1,2-a]pyrido[2,1-c]pyrazine-3-carboxamide], for which the EC50 in test [1] stood at 6400 nM; in test [2] it was 1700 nM; in test [3], 12300 nM.

In the case of `O=C(c1cnc2n1C[C@H](C(c1ccccc1)c1ccccc1)n1ccc(=O)c(O)c1-2)N1CCCC1` [Example 72, (S)-6-benzhydryl-11-hydroxy-3-(pyrrolidine-1-carbonyl)-5,6-dihydro-10H-imidazo[1,2-a]pyrido[2,1-c]pyrazin-10-one], the EC50 in test [1] was found to be 3000 nM; in test [2], 1700 nM; in test [3], 5500 nM.

As to `O=c1ccn2c(c1O)-c1nccn1CN2C1c2ccccc2CSc2ccccc21` (stereo not drawn) [Example 74, 6-(6,11-dihydrodibenzo[b,e]thiepin-11-yl)-11-hydroxy-5,6-dihydro-10H-imidazo[1,2-d]pyrido[2,1-f][1,2,4]triazin-10-one], the EC50 in test [1] stood at 130 nM; in test [2] it was 84 nM; in test [3], 260 nM.

For `CC1(C)N(C(c2ccccc2)c2ccccc2)n2ccc(=O)c(O)c2-c2nccn21` [Example 75, 6-benzhydryl-11-hydroxy-5,5-dimethyl-5,6-dihydro-10H-imidazo[1,2-d]pyrido[2,1-f][1,2,4]triazin-10-one], the figures for the EC50 in test [1], in test [2] and in test [3] were 480 nM, 300 nM and 400 nM, respectively.

As for `O=c1ccn2c(c1O)-c1nccn1C(C1CC1)N2C1c2ccccc2CSc2ccccc21` (stereo not drawn) [Example 76, 5-cyclopropyl-6-(6,11-dihydrodibenzo[b,e]thiepin-11-yl)-11-hydroxy-5,6-dihydro-10H-imidazo[1,2-d]pyrido[2,1-f][1,2,4]triazin-10-one], the EC50 in test [1] was determined as 430 nM; in test [2], 160 nM; in test [3], 670 nM.

Turning to `CCC1N(C(c2ccccc2)c2ccccc2)n2ccc(=O)c(O)c2-c2nccn21` (stereo not drawn) [Example 78, 6-benzhydryl-5-ethyl-11-hydroxy-5,6-dihydro-10H-imidazo[1,2-d]pyrido[2,1-f][1,2,4]triazin-10-one], the figures for the EC50 in test [1], in test [2] and in test [3] were 250 nM, 180 nM and 340 nM, respectively.

Regarding `O=c1ccn2c(c1O)-c1nccn1C1(COC1)N2C1c2ccccc2CSc2ccccc21` (stereo not drawn) [Example 80, 6-(6,11-dihydrodibenzo[b,e]thiepin-11-yl)-11-hydroxy-6H,10H-spiro[imidazo[1,2-d]pyrido[2,1-f][1,2,4]triazine-5,3′-oxetan]-10-one], the figures for the EC50 in test [1], in test [2] and in test [3] were 170 nM, 10 nM and 27 nM, respectively.

Consider `O=c1ccn2c(c1O)-c1ncoc1CN2C(c1ccccc1)c1ccccc1` [Example 83, 5-benzhydryl-10-hydroxy-4,5-dihydro-9H-oxazolo[4,5-d]pyrido[1,2-b]pyridazin-9-one], for which the EC50 in test [1] amounted to 960 nM; in test [2], 970 nM; in test [3], 730 nM.

For `O=c1ccn2c(c1O)-c1ocnc1CN2C(c1ccccc1)c1ccccc1` [Example 84, 5-benzhydryl-10-hydroxy-4,5-dihydro-9H-oxazolo[5,4-d]pyrido[1,2-b]pyridazin-9-one], the EC50 was found to be 14000 nM in test [1], 11000 nM in test [2] and 16000 nM in test [3].

As for `CC(=O)Oc1c2n(ncc1=O)[C@@H](C(c1ccc(F)cc1)c1ccc(F)cc1)Cn1ccnc1-2` [Example 85, (S)-6-(bis(4-fluorophenyl)methyl)-10-oxo-5,6-dihydro-10H-imidazo[2′,1′:3,4]pyrazino[1,2-b]pyridazin-11-yl acetate], the EC50 in test [1] was determined as 19 nM; in test [2], 22 nM; in test [3] it was 49 nM.

For the compound `CC(C)C(=O)Oc1c2n(ncc1=O)[C@@H](C(c1ccc(F)cc1)c1ccc(F)cc1)Cn1ccnc1-2` [Example 86, (S)-6-(bis(4-fluorophenyl)methyl)-10-oxo-5,6-dihydro-10H-imidazo[2′,1′:3,4]pyrazino[1,2-b]pyridazin-11-yl Isobutyrate], the EC50 worked out at 30 nM in test [1], 21 nM in test [2] and 47 nM in test [3].
